Results published in patent US6689806B1, “Indolinone compounds as kinase inhibitors” (Sugen, Inc., priority 1999, dated 2004).

How the values were obtained:
PDGFR = PDGFR (Homo sapiens, UniProt P09619); test: Biochemical PDGFR assay (ELISA); parameters: expressed in transfected cells; host or cells: NIH 3T3; conditions: Table 7, in vitro kinase activity, read-out: PDGFr biochem IC50
Summary of the method: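 PDGFR-β from NIH 3T3 cell lysate captured on 28D4C10-coated plates; compound preincubated 30 min, then 20 μM ATP for 30 min at room temperature and stopped with EDTA. Phosphotyrosine detected by anti-phosphotyrosine ELISA with peroxidase secondary and ABTS, read at 410 nm.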

EGFR [1] = biological target: T1, EGFR (Homo sapiens, UniProt P00533); test: EGF-induced BrdU incorporation assay; format: cell-based; parameters: expressed in transfected cells; host or cells: 3T3; conditions: Table 7; 3T3 cells expressing human EGF-R, EGF 2 nM; read-out: BrdU DNA syn. EGFr IC50
Description: The cellular/biologic assays described herein measure the amount of DNA made in response to activation of a test kinase, which is a general measure of a proliferative response. The general procedure for this assay is as follows: a compound is introduced to cells expressing the test kinase, either naturally or recombinantly, for some period of time after which, if the test kinase is a receptor, a ligand known to activate the receptor is added. After incubation at least overnight, a DNA labeling reagent such as Bromodeoxy-uridine (BrdU) or 3H-thymidine is added. The amount of labeled DNA is detected with either an anti-BrdU antibody or by measuring radioactivity and is compared to control cells not contacted with a test compound.
EGF-Induced BrdU Incorporation Assay
(8) 3T3 cell line genetically engineered to express human EGF-R.
(1) Cells are seeded at 8000 cells/well in 10% CS, 2 mM Gin in DMEM, in a 96 well plate. Cells are incubated overnight at 37° C. in 5% CO2.
(2) After 24 hours, the cells are washed with PBS, and then are serum starved in serum free medium (0% CS DMEM with 0.1% BSA) for 24 hours.
(3) On day 3, ligand (EGF, 2 nM, prepared in DMEM with 0.1%/BSA) and test compounds are added to the cells simultaneously. The negative control wells receive serum free DMEM with 0.1% BSA only; the positive control cells receive the ligand (EGF) but no test compound. Test compounds are prepared in serum free DMEM with ligand in a 96 well plate, and serially diluted for 7 test concentrations.
(4) After 20 hours of ligand activation, diluted BrdU labeling reagent (1: 100 in DMEM, 0.1% BSA) is added and the cells are incubated with BrdU (final concentration=10 μM) for 1.5 hours.
(10) The absorbance of the samples are measured at 410 nm (in “dual wavelength” mode with a filter reading at 490 nm, as a reference wavelength) on a Dynatech ELISA plate reader.

SKOV3 = SKOV3 growth; format: cell-based; conditions: Homo sapiens, SK-OV-3; Table 7; SKOV3 cells
EGFR [2] = biological target: T1, EGFR; test: Biochemical EGFR assay (ELISA); parameters: A431 cell lysate; endogenous in cells; host or cells: A431; conditions: Table 7, in vitro kinase activity, read-out: EGFr biochem IC50
Summary of the method: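 EGFR is captured from cell lysate onto SUMO1-coated plates and incubated with compound diluted in TBS. The kinase reaction is stopped after 5 min with EDTA. Substrate phosphotyrosine is detected with anti-phosphotyrosine and peroxidase-linked secondary antibody, then ABTS/H2O2 read at 410 nm (reference 630 nm).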

A431 = A431 growth; format: cell-based; conditions: Homo sapiens, A-431; Table 7; A431 cells

PDGFR, sequence (P09619 33-1106): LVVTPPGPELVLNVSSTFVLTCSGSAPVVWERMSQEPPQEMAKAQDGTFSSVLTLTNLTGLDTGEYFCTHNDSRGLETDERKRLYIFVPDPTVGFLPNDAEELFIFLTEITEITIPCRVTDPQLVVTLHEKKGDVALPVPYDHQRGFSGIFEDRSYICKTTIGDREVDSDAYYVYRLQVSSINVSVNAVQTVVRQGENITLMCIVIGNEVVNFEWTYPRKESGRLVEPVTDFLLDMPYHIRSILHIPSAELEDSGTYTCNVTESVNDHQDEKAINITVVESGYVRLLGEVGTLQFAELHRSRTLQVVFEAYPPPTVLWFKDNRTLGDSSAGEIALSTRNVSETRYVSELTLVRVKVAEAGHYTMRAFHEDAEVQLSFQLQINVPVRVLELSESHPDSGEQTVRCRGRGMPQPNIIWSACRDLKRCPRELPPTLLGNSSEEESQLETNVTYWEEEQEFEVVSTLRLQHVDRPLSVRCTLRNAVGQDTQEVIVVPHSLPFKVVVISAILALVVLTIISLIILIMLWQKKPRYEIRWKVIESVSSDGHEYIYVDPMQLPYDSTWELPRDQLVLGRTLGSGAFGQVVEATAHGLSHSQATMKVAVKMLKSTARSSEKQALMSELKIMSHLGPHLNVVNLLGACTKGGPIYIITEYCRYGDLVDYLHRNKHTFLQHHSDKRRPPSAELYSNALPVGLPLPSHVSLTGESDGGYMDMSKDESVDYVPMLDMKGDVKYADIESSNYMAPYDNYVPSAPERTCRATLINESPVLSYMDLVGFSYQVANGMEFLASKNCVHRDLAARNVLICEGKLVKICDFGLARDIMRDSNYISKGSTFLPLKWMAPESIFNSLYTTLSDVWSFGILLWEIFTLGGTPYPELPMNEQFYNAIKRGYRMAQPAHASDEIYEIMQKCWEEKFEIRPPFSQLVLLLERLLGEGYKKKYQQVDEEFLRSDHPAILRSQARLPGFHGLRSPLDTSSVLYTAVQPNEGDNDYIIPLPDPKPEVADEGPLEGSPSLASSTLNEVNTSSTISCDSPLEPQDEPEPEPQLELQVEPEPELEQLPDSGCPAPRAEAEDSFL
T1 sequence (P00533 25-1210): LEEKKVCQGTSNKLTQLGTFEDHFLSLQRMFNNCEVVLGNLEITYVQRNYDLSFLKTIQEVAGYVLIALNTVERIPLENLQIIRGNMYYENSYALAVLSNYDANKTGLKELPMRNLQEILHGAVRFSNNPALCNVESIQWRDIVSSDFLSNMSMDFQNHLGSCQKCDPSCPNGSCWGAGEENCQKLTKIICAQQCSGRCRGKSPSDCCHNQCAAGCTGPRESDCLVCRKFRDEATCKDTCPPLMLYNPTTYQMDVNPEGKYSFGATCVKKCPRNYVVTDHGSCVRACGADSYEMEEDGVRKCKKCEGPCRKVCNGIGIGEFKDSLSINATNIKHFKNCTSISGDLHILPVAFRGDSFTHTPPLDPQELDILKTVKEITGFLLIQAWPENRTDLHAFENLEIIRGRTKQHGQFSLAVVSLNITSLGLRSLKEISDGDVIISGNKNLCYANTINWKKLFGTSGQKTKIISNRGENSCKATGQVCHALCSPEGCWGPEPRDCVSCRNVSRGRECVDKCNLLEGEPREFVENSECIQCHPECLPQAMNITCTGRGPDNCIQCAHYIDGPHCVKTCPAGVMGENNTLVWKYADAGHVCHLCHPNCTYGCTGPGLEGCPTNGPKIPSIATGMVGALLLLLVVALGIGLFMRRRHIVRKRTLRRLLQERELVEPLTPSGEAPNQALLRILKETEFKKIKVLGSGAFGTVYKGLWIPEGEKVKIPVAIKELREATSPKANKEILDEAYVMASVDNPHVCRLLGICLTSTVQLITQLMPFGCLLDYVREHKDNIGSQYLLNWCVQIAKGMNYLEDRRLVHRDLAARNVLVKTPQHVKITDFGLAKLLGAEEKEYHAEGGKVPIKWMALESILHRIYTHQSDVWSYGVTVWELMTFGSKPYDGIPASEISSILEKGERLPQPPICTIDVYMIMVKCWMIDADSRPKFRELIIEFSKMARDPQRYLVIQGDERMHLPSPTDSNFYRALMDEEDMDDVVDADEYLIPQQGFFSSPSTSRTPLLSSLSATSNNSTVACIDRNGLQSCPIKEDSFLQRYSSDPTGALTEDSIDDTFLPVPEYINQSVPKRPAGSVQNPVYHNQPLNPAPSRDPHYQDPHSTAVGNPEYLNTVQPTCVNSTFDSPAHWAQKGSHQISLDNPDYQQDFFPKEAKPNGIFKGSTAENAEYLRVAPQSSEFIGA

IC50 (PDGFR) [µM]	IC50 (EGFR [1]) [µM]	IC50 (SKOV3) [µM]	IC50 (EGFR [2]) [µM]	IC50 (A431) [µM]	Structure (SMILES)
20.2	29	17.8	> 100	8.7	O=C1Cc2c(CCOc3cccc(-c4ccccc4)c3)cccc2N1 [IN-003, 4-[2-(Biphenyl-3-yloxy)-ethyl]-1,3-dihydro-indol-2-one]
> 100	4.7	2.9	> 100	1.1	O=C1Nc2cccc(CCO)c2/C1=C\c1ccc(Br)cc1 [IN-004, 3-(4-Bromo-benzylidene)-4-(2-hydroxy-ethyl)-1,3-dihydro-indol-2-one]
> 100	11.1	5	> 100	6	Cc1cccc(/C=C2\C(=O)Nc3cccc(CCO)c32)n1 [IN-006]
> 100	31.3	1.5	> 100	2.5	COc1ccc(/C=C2\C(=O)Nc3cccc(CCO)c32)cc1-c1cccs1 [IN-008, 4-(2-Hydroxy-ethyl)-3-(4-methoxy-3-thiophen-2-yl-benzylidene)-1,3-dihydro-indol-2-one]
